# Measurements taken from ChEMBL document CHEMBL5653635, “Induction of apoptosis and cell cycle arrest by CP-358,774, an inhibitor of epidermal growth factor receptor tyrosine kinase” (Cancer Res, 1997).
# Calls of active or inactive are those of the source. No cut-off for these calls is given here.
# Columns and labels:
# DiFi [1] = assay: Induction of cell cycle arrest in human DiFi cells assessed as decrease in cell percentage in S phase at 0.1 uM measured after 24 hrs by BrdUrd incorporation based flow cytometry analysis (reference value: 14 +- 0.5%); type: functional; set-up: scale not given: the % may be the effect or the level left
# DiFi [2] = assay: Induction of cell cycle arrest in human DiFi cells assessed as accumulation of cells at G1 phase at 1 uM incubated for 24 hrs by PI staining based flow cytometry analysis (reference value: 64%); type: functional
# [3] = target: Insulin-like growth factor 1 receptor (Homo sapiens) (UniProt P08069); assay: Inhibition of IGF-IR (711 to 1377 residues) (unknown origin) expressed in baculovirus-infected Sf9 cells at 10 uM incubated for 8 mins by colorimetry based assay
# DiFi [4] = assay: Induction of PARP cleavage in human DiFi cells assessed as decrease in Mr 116000 fragments at 1 uM incubated for 24 hrs by Western blotting analysis; type: functional, cell-based
# DiFi [5] = assay: Induction of apoptosis in human DiFi cells assessed as protection of annexin V-FITC binding at 1 uM incubated for 24 hrs in presence of IGF-1 by annexin V-FITC and PI staining based flow cytometry analysis relative to control; type: functional
# [6] = target: Insulin-like growth factor 1 receptor (Homo sapiens) (UniProt P08069); assay: Inhibition of insulin induced phosphorylation of IRS-1 in serum starved human HN5 cells at 1 uM preincubated for 1 hr followed by insulin stimulation and measured after 5 mins by immunoblot analysis; type: cell-based; conditions: time 65.0 min
# DiFi [7] = assay: Induction of PARP cleavage in human DiFi cells assessed as decrease in Mr 116000 fragments at 1 uM incubated for 24 hrs in presence of IGF-1 by Western blotting analysis; type: functional, cell-based
# DiFi [8] = assay: Induction of cell cycle arrest in human DiFi cells assessed as accumulation of cells at S phase at 1 uM incubated for 24 hrs in presence of IGF-1 by PI staining based flow cytometry analysis (reference value: 8 %); type: functional
# DiFi [9] = assay: Induction of apoptosis in human DiFi cells at 1 uM incubated for 24 hrs by PI staining based flow cytometry analysis (reference value: 2.3%); type: functional
# DiFi [10] = assay: Induction of cell cycle arrest in human DiFi cells assessed as accumulation of cells at G1 phase at 1 uM incubated for 24 hrs in presence of IGF-1 by PI staining based flow cytometry analysis (reference value: 64%); type: functional
# HN5 [11] = assay: Induction of apoptosis in human HN5 cells assessed as decrease in cell population at 1 uM measured after 24 hrs by PI staining based flow cytometry analysis; type: functional
# DiFi [12] = assay: Induction of cell cycle arrest in human DiFi cells assessed as increase in cell percentage in G1 phase at 0.1 uM measured after 24 hrs by BrdUrd incorporation based flow cytometry analysis (reference value: 82 +- 0.9%); type: functional
# [13] = target: Insulin receptor (Homo sapiens) (UniProt P06213); assay: Inhibition of insulin induced phosphorylation of insulin receptor in serum starved human HN5 cells at 1 uM preincubated for 1 hr followed by insulin stimulation and measured after 5 mins by immunoblot analysis; type: cell-based; conditions: time 65.0 min
# DiFi [14] = assay: Induction of PARP cleavage in human DiFi cells assessed as increase in Mr 85000 fragments at 1 uM incubated for 24 hrs by Western blotting analysis; type: functional, cell-based
# DiFi [15] = assay: Antiproliferative activity against human DiFi cells assessed as percentage of viable cells at 1 uM measured after 24 hrs by coulter counter method (reference value: 98+/-0.8%); type: functional
# HN5 [16] = assay: Antiproliferative activity against human HN5 cells assessed as inhibition of cell viability at 250 nM relative to control; type: functional
# HN5 [17] = assay: Antiproliferative activity against human HN5 cells assessed as inhibition of cell viability at 50 nM; type: functional, cell-based
# DiFi [18] = assay: Induction of apoptosis in human DiFi cells assessed as DNA fragmentation at 1 uM measured after 24 hrs in presence of IGF-1 by agarose gel electrophoresis analysis; type: functional, cell-based
# HN5 [19] = assay: Induction of cell cycle arrest in human HN5 cells assessed as increase in accumulation of cells in G1 phase at 1 uM measured after 48 hrs by PI staining based flow cytometry analysis (reference value: 24%); type: functional
# DiFi [20] = assay: Induction of apoptosis in human DiFi cells at 1 uM incubated for 24 hrs in presence of IGF-1 by PI staining based flow cytometry analysis (reference value: 2.3%); type: functional
# DiFi [21] = assay: Induction of apoptosis in human DiFi cells at 1 uM measured after 24 hrs in presence of IGF-1 by annexin V-FITC and PI staining based flow cytometry analysis (reference value: 6%); type: functional
# DiFi [22] = assay: Induction of apoptosis in human DiFi cells assessed as decrease in number of normal cells at 1 uM incubated for 24 hrs by annexin V-FITC and PI staining based flow cytometry analysis; type: functional, cell-based
# DiFi [23] = assay: Induction of cell cycle arrest in human DiFi cells assessed as increase in cell percentage in G1 phase at 1 uM measured after 24 hrs by BrdUrd incorporation based flow cytometry analysis (reference value: 82 +- 0.9%); type: functional
# DiFi [24] = assay: Induction of cell cycle arrest in human DiFi cells assessed as accumulation of cells at S phase at 1 uM incubated for 24 hrs by PI staining based flow cytometry analysis (reference value: 8 %); type: functional
# DiFi [25] = assay: Induction of apoptosis in human DiFi cells assessed as accumulation of cells at sub-G1 phase at 1 uM measured after 24 hrs in presence of IGF-1 by PI staining based flow cytometry analysis; type: functional, cell-based
# DiFi [26] = assay: Induction of apoptosis in human DiFi cells assessed as increase in number of necrotic cells at 1 uM incubated for 24 hrs by annexin V-FITC and PI staining based flow cytometry analysis; type: functional, cell-based
# DiFi [27] = assay: Induction of apoptosis in human DiFi cells assessed as accumulation of cells at sub-G1 phase at 1 uM measured after 24 hrs by PI staining based flow cytometry analysis; type: functional, cell-based
# [28] = target: Insulin receptor (Homo sapiens) (UniProt P06213); assay: Inhibition of human recombinant insulin receptor expressed in baculovirus at 10 uM incubated for 8 mins by colorimetry based assay
# DiFi [29] = assay: Induction of cell cycle arrest in human DiFi cells assessed as accumulation of cells at G2 phase at 1 uM incubated for 24 hrs in presence of IGF-1 by PI staining based flow cytometry analysis (reference value: 28%); type: functional
# [30] = Antiproliferative activity against raf-transformed mouse NIH3T3 cells assessed as inhibition of cell viability; type: toxicity, cell-based
# DiFi [31] = assay: Induction of PARP cleavage in human DiFi cells assessed as increase in Mr 85000 fragments at 1 uM incubated for 24 hrs in presence of IGF-1 by Western blotting analysis; type: functional, cell-based
# DiFi [32] = assay: Induction of apoptosis in human DiFi cells assessed as DNA fragmentation by measuring DNA ladders at 1 uM measured after 24 hrs by agarose gel electrophoresis analysis; type: functional, cell-based
# DiFi [33] = assay: Induction of cell cycle arrest in human DiFi cells assessed as decrease in cell percentage in S phase at 1 uM measured after 24 hrs by BrdUrd incorporation based flow cytometry analysis (reference value: 14 +- 0.5%); type: functional; set-up: scale not given: the % may be the effect or the level left
# DiFi [34] = assay: Induction of PARP cleavage in human DiFi cells assessed as increase in Mr 85000 fragments at 8 ug/ml […] incubated for 24 hrs by Western blotting analysis; type: functional, cell-based; conditions: dose 8.0 µg/ml
# DiFi [35] = assay: Induction of apoptosis in human DiFi cells at 1 uM measured after 24 hrs by annexin V-FITC and PI staining based flow cytometry analysis (reference value: 6%); type: functional
# DiFi [36] = assay: Induction of cell cycle arrest in human DiFi cells assessed as accumulation of cells at G2 phase at 1 uM incubated for 24 hrs by PI staining based flow cytometry analysis (reference value: 28%); type: functional
# HN5 [37] = assay: Induction of cell cycle arrest in human HN5 cells assessed as reduction in accumulation of cells in S phase at 1 uM measured after 48 hrs by PI staining based flow cytometry analysis (reference value: 55%); type: functional; set-up: scale not given: the % may be the effect or the level left
# [38] = target: Insulin-like growth factor 1 receptor (Homo sapiens) (UniProt P08069); assay: Inhibition of IGF-IR (711 to 1377 residues) (unknown origin) expressed in baculovirus-infected Sf9 cells at 20 uM incubated for 8 mins by colorimetry based assay relative to control
# Insulin-like growth factor 1 receptor (Homo sapiens), sequence (P08069 31-736 limits assumed): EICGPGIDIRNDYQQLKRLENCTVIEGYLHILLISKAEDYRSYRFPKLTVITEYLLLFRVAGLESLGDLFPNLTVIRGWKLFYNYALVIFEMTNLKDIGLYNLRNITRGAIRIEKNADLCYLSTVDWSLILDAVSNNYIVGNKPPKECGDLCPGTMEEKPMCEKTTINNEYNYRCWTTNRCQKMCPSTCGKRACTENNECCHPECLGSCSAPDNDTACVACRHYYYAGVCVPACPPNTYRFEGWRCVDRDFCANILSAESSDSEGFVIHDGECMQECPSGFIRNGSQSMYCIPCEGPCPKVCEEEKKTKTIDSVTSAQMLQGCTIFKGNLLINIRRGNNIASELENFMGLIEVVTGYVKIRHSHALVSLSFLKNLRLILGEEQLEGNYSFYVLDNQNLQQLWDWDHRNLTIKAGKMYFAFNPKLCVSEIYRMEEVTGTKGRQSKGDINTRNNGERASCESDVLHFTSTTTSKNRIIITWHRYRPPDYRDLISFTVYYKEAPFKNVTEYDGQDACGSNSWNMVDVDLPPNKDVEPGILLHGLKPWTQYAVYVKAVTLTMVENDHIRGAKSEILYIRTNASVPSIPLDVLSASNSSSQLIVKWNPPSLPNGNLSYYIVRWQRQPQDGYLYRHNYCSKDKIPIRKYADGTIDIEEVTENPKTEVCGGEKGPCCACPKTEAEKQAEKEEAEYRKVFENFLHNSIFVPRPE
# Insulin-like growth factor 1 receptor (Homo sapiens), sequence (P08069 741-1367 limits assumed): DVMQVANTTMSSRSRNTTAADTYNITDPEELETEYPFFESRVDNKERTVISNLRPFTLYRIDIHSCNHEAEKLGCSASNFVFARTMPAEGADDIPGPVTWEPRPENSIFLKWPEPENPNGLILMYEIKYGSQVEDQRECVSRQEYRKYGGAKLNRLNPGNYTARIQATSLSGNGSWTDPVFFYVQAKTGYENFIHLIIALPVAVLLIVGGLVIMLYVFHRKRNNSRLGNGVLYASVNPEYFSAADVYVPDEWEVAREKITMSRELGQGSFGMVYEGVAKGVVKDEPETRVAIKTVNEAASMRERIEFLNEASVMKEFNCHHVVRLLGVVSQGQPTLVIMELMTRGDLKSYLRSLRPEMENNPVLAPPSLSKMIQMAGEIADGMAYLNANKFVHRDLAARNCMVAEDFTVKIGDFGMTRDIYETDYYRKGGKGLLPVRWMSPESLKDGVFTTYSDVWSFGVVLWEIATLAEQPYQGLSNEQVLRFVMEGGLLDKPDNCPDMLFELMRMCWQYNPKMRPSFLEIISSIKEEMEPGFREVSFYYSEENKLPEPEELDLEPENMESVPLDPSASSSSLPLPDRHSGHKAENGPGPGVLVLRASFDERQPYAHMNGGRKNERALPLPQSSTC
# Insulin receptor (Homo sapiens), sequence (P06213 28-758 limits assumed): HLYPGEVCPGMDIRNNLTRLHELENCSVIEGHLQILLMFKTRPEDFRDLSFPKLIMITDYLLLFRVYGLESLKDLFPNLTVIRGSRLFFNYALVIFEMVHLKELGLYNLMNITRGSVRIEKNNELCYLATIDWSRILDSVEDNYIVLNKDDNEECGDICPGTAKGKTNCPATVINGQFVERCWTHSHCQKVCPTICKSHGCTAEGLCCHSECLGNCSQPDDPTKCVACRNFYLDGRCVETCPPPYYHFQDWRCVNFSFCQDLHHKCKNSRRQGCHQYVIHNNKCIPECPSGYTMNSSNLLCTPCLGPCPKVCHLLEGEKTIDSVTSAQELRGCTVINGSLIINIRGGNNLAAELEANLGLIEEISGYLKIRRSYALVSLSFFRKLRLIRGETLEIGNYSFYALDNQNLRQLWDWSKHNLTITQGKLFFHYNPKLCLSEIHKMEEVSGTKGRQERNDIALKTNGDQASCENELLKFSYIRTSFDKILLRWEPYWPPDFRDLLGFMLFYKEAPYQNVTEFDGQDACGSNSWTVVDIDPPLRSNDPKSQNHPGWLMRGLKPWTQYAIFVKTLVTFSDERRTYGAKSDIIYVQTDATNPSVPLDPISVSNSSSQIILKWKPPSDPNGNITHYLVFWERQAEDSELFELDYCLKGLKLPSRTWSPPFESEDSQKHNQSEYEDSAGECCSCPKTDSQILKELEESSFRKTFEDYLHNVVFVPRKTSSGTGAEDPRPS
# Insulin receptor (Homo sapiens), sequence (P06213 763-1382 limits assumed): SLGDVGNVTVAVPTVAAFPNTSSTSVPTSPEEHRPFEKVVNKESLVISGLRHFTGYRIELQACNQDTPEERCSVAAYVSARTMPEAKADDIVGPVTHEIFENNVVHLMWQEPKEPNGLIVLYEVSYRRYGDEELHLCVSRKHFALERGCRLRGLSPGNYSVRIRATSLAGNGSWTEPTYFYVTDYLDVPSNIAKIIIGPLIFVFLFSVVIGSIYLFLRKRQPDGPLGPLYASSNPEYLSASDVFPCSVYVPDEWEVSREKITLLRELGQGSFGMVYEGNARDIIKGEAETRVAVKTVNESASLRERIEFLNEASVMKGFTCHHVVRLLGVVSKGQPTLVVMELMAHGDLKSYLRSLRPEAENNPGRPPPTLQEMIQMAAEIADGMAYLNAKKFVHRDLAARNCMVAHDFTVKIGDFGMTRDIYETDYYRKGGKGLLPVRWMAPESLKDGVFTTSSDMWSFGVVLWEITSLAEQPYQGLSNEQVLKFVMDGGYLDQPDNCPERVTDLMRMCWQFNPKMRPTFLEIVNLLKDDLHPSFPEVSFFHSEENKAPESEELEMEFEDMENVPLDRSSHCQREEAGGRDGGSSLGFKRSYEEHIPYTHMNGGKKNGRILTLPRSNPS
compound,measurement,setting,value
C#Cc1cccc(Nc2ncnc3cc(OCCOC)c(OCCOC)cc23)c1 [ERLOTINIB],Activity,DiFi [1],9%
same,Activity,DiFi [2],77%
same,inhibition,[3],inactive
same,Activity,DiFi [4],Active
same,Activity,DiFi [5],100%
same,inhibition,[6],inactive
same,Activity,DiFi [7],inactive
same,Activity,DiFi [8],2%
same,Activity,DiFi [9],17%
same,Activity,DiFi [10],77%
same,Activity,HN5 [11],Active
same,Activity,DiFi [12],85%
same,inhibition,[13],inactive
same,Activity,DiFi [14],Active
same,Activity,DiFi [15],97%
same,Activity,HN5 [16],100%
same,Activity,HN5 [17],Active
same,Activity,DiFi [18],inactive
same,Activity,HN5 [19],56%
same,Activity,DiFi [20],7.4%
same,Activity,DiFi [21],6%
same,Activity,DiFi [22],Active
same,Activity,DiFi [23],95%
same,Activity,DiFi [24],5%
same,Activity,DiFi [25],inactive
same,Activity,DiFi [26],inactive
same,Activity,DiFi [27],Active
same,inhibition,[28],inactive
same,Activity,DiFi [29],21%
same,IC50,[30],7 µM
same,Activity,DiFi [31],inactive
same,Activity,DiFi [32],Active
same,Activity,DiFi [33],0.7%
same,Activity,DiFi [34],Active
same,Activity,DiFi [35],21%
same,Activity,DiFi [36],18%
same,Activity,HN5 [37],24%
N#CC(C#N)=Cc1cc(O)c(O)c(O)c1,inhibition,[38],50%
